T/C data for 16 compounds are collected here from PubChem BioAssay AID270 (DTP/NCI, 2004).

The assay relates to BDF1 mice, s.c. Lewis lung carcinoma, T/C %. Nature of the assay: NCI In Vivo Anticancer Drug Screen. Data for tumor model Lewis Lung Carcinoma (subcutaneous) in B6D2F1 (BDF1) mice. In short, it runs like this: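 The value reflects a ratio in which the treated cohort's survival time or tumour size is compared against mice receiving only vehicle.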
The mark [1] stands for this setting: endpoint: mean tumor weight, dose: 50.0 mg/kg/injection, schedule: Q01DX011 (ip), vehicle: saline, higher = larger tumour.
Setting [2] is: endpoint: median survival time, dose: 3.12 mg/kg/injection, schedule: Q01DX009 (ip), vehicle: saline, higher = longer survival.
Where [3] appears, read: endpoint: median survival time, dose: 6.25 mg/kg/injection, schedule: Q01DX009 (ip), vehicle: saline, higher = longer survival.
Setting [4] is: endpoint: median survival time, dose: 12.5 mg/kg/injection, schedule: Q01DX009 (ip), vehicle: saline, higher = longer survival.
Setting [5] is: endpoint: mean tumor weight, dose: 6.25 mg/kg/injection, schedule: Q01DX011 (ip), vehicle: saline, higher = larger tumour.
Where [6] appears, read: endpoint: mean tumor weight, dose: 12.5 mg/kg/injection, schedule: Q01DX011 (ip), vehicle: saline, higher = larger tumour.

“And” between values parts separate entries of the source, which are not always exact repeats. Equal values may be shown once. Records with an inconclusive call do not appear.

Turning to `Nc1nc2nc[nH]c2c(=O)[nH]1`, the T/C by setting is: (endpoint: mean tumor weight, dose: 6.25 mg/kg/injection, schedule: Q01DX010 (ip), vehicle: saline, higher = larger tumour) 73 % of control; (endpoint: mean tumor weight, dose: 12.5 mg/kg/injection, schedule: Q01DX010 (ip), vehicle: saline, higher = larger tumour) 71 % of control; (endpoint: mean tumor weight, dose: 25.0 mg/kg/injection, schedule: Q01DX010 (ip), vehicle: saline, higher = larger tumour) 96 % of control; (endpoint: mean tumor weight, dose: 50.0 mg/kg/injection, schedule: Q01DX010 (ip), vehicle: saline, higher = larger tumour) 71 % of control; under setting [1], 82 % of control; (endpoint: mean tumor weight, dose: 100.0 mg/kg/injection, schedule: Q01DX011 (ip), vehicle: saline, higher = larger tumour) 80 % of control.

With `ClCC[N+]12CC[N+](CCCl)(CC1)C2`, the T/C (endpoint: median survival time, dose: 25.0 mg/kg/injection, schedule: Q01DX009 (ip), vehicle: saline, higher = longer survival) is 105 % of control and the T/C (endpoint: median survival time, dose: 50.0 mg/kg/injection, schedule: Q01DX009 (ip), vehicle: saline, higher = longer survival) is 106 % of control.

For `CC[C@H]1CN2CCc3cc(OC)c(OC)cc3[C@@H]2C[C@@H]1C[C@H]1NCCc2cc(O)c(OC)cc21`, the T/C runs as follows: (endpoint: mean tumor weight, dose: 1.25 mg/kg/injection, schedule: Q01DX011 (ip), vehicle: saline, higher = larger tumour) 94 % of control; (endpoint: mean tumor weight, dose: 2.5 mg/kg/injection, schedule: Q01DX011 (ip), vehicle: saline, higher = larger tumour) 55 % of control; (endpoint: mean tumor weight, dose: 5.0 mg/kg/injection, schedule: Q01DX011 (ip), vehicle: saline, higher = larger tumour) 37 % of control.

For `CC(=O)C(O)N1C(=O)C=CC1=O` (configuration not stated), the T/C runs as follows: (endpoint: median survival time, dose: 0.31 mg/kg/injection, schedule: Q01DX009 (ip), vehicle: saline, higher = longer survival) 100 % of control; (endpoint: median survival time, dose: 0.62 mg/kg/injection, schedule: Q01DX009 (ip), vehicle: saline, higher = longer survival) 98 % of control and 105 % of control and 119 % of control; (endpoint: median survival time, dose: 1.25 mg/kg/injection, schedule: Q01DX009 (ip), vehicle: saline, higher = longer survival) 107 % of control (2×) and 120 % of control; (endpoint: median survival time, dose: 1.25 mg/kg/injection, schedule: Q02DX009 (ip), vehicle: saline, higher = longer survival) 114 % of control; (endpoint: median survival time, dose: 2.5 mg/kg/injection, schedule: Q01DX009 (ip), vehicle: saline, higher = longer survival) 90 % of control and 107 % of control; (endpoint: median survival time, dose: 2.5 mg/kg/injection, schedule: Q02DX009 (ip), vehicle: saline, higher = longer survival) 104 % of control. For the same compound, the T/C (endpoint: median survival time, dose: 5.0 mg/kg/injection, schedule: Q01DX009 (ip), vehicle: saline, higher = longer survival) is 97 % of control and 100 % of control and 120 % of control; the T/C (endpoint: median survival time, dose: 5.0 mg/kg/injection, schedule: Q02DX009 (ip), vehicle: saline, higher = longer survival) was 105 % of control.

`O=NN(CCCl)C(=O)NC1CS(=O)(=O)CS(=O)(=O)C1`: the T/C is 82 % of control (endpoint: median survival time, dose: 5.3 mg/kg/injection, schedule: Q04DX004 (ip), vehicle: saline with Tween-80, higher = longer survival); 151 % of control (endpoint: median survival time, dose: 8.0 mg/kg/injection, schedule: Q04DX004 (ip), vehicle: saline with Tween-80, higher = longer survival); 99 % of control (endpoint: median survival time, dose: 12.0 mg/kg/injection, schedule: Q04DX004 (ip), vehicle: saline with Tween-80, higher = longer survival); 118 % of control (endpoint: median survival time, dose: 18.0 mg/kg/injection, schedule: Q04DX004 (ip), vehicle: saline with Tween-80, higher = longer survival).

For the compound `Cc1cc(N(CC(C)Br)CC(C)Br)ccc1N=Nc1ccccc1C(=O)O` (configuration not stated), the T/C (endpoint: median survival time, dose: 3.12 mg/kg/injection, schedule: Q01DX009 (ip), vehicle: saline with Tween-80, higher = longer survival) was 108 % of control; the T/C (endpoint: median survival time, dose: 6.25 mg/kg/injection, schedule: Q01DX009 (ip), vehicle: saline with Tween-80, higher = longer survival) was 95 % of control and 102 % of control.

Regarding `CC(=O)Oc1ccc(/C=N/NC(N)=S)nc1`, the T/C was 97 % of control (endpoint: median survival time, dose: 9.4 mg/kg/injection, schedule: Q01DX009 (ip), vehicle: saline with Tween-80, higher = longer survival); 97 % of control (endpoint: median survival time, dose: 18.8 mg/kg/injection, schedule: Q01DX009 (ip), vehicle: saline with Tween-80, higher = longer survival); 100 % of control (endpoint: median survival time, dose: 25.0 mg/kg/injection, schedule: Q01DX009 (ip), vehicle: saline with Tween-80, higher = longer survival); 101 % of control (endpoint: median survival time, dose: 37.5 mg/kg/injection, schedule: Q01DX009 (ip), vehicle: saline with Tween-80, higher = longer survival); 107 % of control (endpoint: median survival time, dose: 50.0 mg/kg/injection, schedule: Q01DX009 (ip), vehicle: saline with Tween-80, higher = longer survival); 117 % of control (endpoint: median survival time, dose: 75.0 mg/kg/injection, schedule: Q01DX009 (ip), vehicle: saline with Tween-80, higher = longer survival). For the same compound, the T/C was 117 % of control (endpoint: median survival time, dose: 100.0 mg/kg/injection, schedule: Q01DX009 (ip), vehicle: saline with Tween-80, higher = longer survival); 96 % of control (endpoint: median tumor weight (est.), dose: 24.0 mg/kg/injection, schedule: Q03HX024 (ip), vehicle: saline with Tween-80, higher = larger tumour); 41 % of control (endpoint: median tumor weight (est.), dose: 36.0 mg/kg/injection, schedule: Q03HX024 (ip), vehicle: saline with Tween-80, higher = larger tumour).

Take `O=C1NC2(CCCCC2)C(=O)N1CCN(CCCl)CCCl`: the T/C runs as follows: (endpoint: median survival time, dose: 1.5 mg/kg/injection, schedule: Q01DX009 (ip), vehicle: Klucel (hydroxypropylcellulose) (HPC), higher = longer survival) 98 % of control; (endpoint: median survival time, dose: 1.5 mg/kg/injection, schedule: Q01DX009 (ip), vehicle: saline, higher = longer survival) 91 % of control; (endpoint: median survival time, dose: 1.56 mg/kg/injection, schedule: Q01DX009 (ip), vehicle: saline, higher = longer survival) 87 % of control and 93 % of control; (endpoint: median survival time, dose: 3.0 mg/kg/injection, schedule: Q01DX009 (ip), vehicle: Klucel (hydroxypropylcellulose) (HPC), higher = longer survival) 104 % of control; (endpoint: median survival time, dose: 3.0 mg/kg/injection, schedule: Q01DX009 (ip), vehicle: saline, higher = longer survival) 89 % of control; under setting [2], 100 % of control. The T/C runs as follows: (endpoint: median survival time, dose: 6.0 mg/kg/injection, schedule: Q01DX009 (ip), vehicle: saline, higher = longer survival) 106 % of control; under setting [3], 111 % of control; (endpoint: median survival time, dose: 12.0 mg/kg/injection, schedule: Q01DX009 (ip), vehicle: saline, higher = longer survival) 89 % of control; under setting [4], 97 % of control.

Turning to `O=NN(CCCl)C(=O)NC1CC2CCC1C2` (configuration not stated), the T/C reads like this: (endpoint: median survival time, dose: 10.0 mg/kg/injection, schedule: Q01DX001 (ip), vehicle: Klucel (hydroxypropylcellulose) (HPC), higher = longer survival) 102 % of control and 108 % of control; (endpoint: median survival time, dose: 20.0 mg/kg/injection, schedule: Q01DX001 (ip), vehicle: Klucel (hydroxypropylcellulose) (HPC), higher = longer survival) 99 % of control and 102 % of control; (endpoint: median survival time, dose: 40.0 mg/kg/injection, schedule: Q01DX001 (ip), vehicle: Klucel (hydroxypropylcellulose) (HPC), higher = longer survival) 106 % of control; (endpoint: median survival time, dose: 80.0 mg/kg/injection, schedule: Q01DX001 (ip), vehicle: Klucel (hydroxypropylcellulose) (HPC), higher = longer survival) 260 % of control; (endpoint: median survival time, dose: 160.0 mg/kg/injection, schedule: Q01DX001 (ip), vehicle: Klucel (hydroxypropylcellulose) (HPC), higher = longer survival) 117 % of control.

`CCN(CC)Cc1cc(Nc2c3ccccc3nc3cc(Cl)ccc23)ccc1O`: the T/C (endpoint: mean tumor weight, dose: 40.0 mg/kg/injection, schedule: Q01DX011 (ip), vehicle: other, higher = larger tumour) was 48 % of control.

`C[C@@H](N)[C@@H](O)c1ccccc1`: the T/C by setting is: (endpoint: mean tumor weight, dose: 3.13 mg/kg/injection, schedule: Q01DX011 (ip), vehicle: saline, higher = larger tumour) 91 % of control; under setting [5], 67 % of control; under setting [6], 45 % of control.

As for `C=C1C(=O)O[C@H]2[C@H]1[C@H](OC(=O)/C(C)=C\C)CC(=C)[C@@H]1[C@H](O)[C@H]3O[C@@]3(C)[C@@]12O`, the T/C (endpoint: mean tumor weight, dose: 7.5 mg/kg/injection, schedule: Q01DX011 (ip), vehicle: saline, higher = larger tumour) was 63 % of control; the T/C (endpoint: mean tumor weight, dose: 15.0 mg/kg/injection, schedule: Q01DX011 (ip), vehicle: saline, higher = larger tumour) was 70 % of control; the T/C (endpoint: mean tumor weight, dose: 30.0 mg/kg/injection, schedule: Q01DX011 (ip), vehicle: saline, higher = larger tumour) is 63 % of control.

On to `O=[N+]([O-])O.[Ga]`, for which the T/C reads like this: (endpoint: median survival time, dose: 8.0 mg/kg/injection, schedule: Q01DX009 (ip), vehicle: saline, higher = longer survival) 118 % of control; (endpoint: median survival time, dose: 16.0 mg/kg/injection, schedule: Q01DX009 (ip), vehicle: saline, higher = longer survival) 158 % of control; (endpoint: median survival time, dose: 32.0 mg/kg/injection, schedule: Q01DX009 (ip), vehicle: saline, higher = longer survival) 99 % of control.

As for `CC(=O)CC(C)=O.CC(=O)CC(C)=O.CC(=O)CC(C)=O.[V]`, the T/C under setting [2] was 109 % of control, the T/C under setting [3] was 109 % of control and the T/C under setting [4] was 94 % of control.

For the compound `CCCCn1cnc2c(=S)nc(N)[nH]c21`, the T/C is, setting by setting: (endpoint: mean tumor weight, dose: 1.0 mg/kg/injection, schedule: Q01DX011 (ip), vehicle: other, higher = larger tumour) 73 % of control; (endpoint: mean tumor weight, dose: 2.0 mg/kg/injection, schedule: Q01DX011 (ip), vehicle: other, higher = larger tumour) 59 % of control; (endpoint: mean tumor weight, dose: 4.0 mg/kg/injection, schedule: Q01DX011 (ip), vehicle: other, higher = larger tumour) 39 % of control; (endpoint: mean tumor weight, dose: 8.0 mg/kg/injection, schedule: Q01DX011 (ip), vehicle: other, higher = larger tumour) 58 % of control and 63 % of control; (endpoint: mean tumor weight, dose: 16.0 mg/kg/injection, schedule: Q01DX011 (ip), vehicle: other, higher = larger tumour) 61 % of control; (endpoint: mean tumor weight, dose: 32.0 mg/kg/injection, schedule: Q01DX011 (ip), vehicle: other, higher = larger tumour) 34 % of control.

With `CC(C)=CCC/C(C)=C\CC/C(C)=C/CO`, the T/C under setting [5] was 85 % of control; the T/C under setting [6] is 50 % of control; the T/C (endpoint: mean tumor weight, dose: 25.0 mg/kg/injection, schedule: Q01DX011 (ip), vehicle: saline, higher = larger tumour) was 67 % of control; the T/C under setting [1] is 95 % of control.
